Data: the NIST ThermoML archive (doi:10.1021/je060475r)

Columns and labels:
[1] = xn = mol fraction of the nth substance listed; conditions: 101 kPa, Liquid
[2] = 101 kPa, Liquid

O=CN1CCOCC1 [N-formylmorpholine] + c1ccccc1
[1]
Conditions	mass density [kg/m3]	viscosity [mPa·s]
298.15 K, x2 = 0	1146.06	7.955
298.15 K, x2 = 0.0977	1124.83	6.078
298.15 K, x2 = 0.198	1101.75	4.597
298.15 K, x2 = 0.2987	1077.06	3.524
298.15 K, x2 = 0.4013	1051.67	2.656
298.15 K, x2 = 0.4983	1027.35	2.051
298.15 K, x2 = 0.599	1001.36	1.602
298.15 K, x2 = 0.6999	970.18	1.234
298.15 K, x2 = 0.802	938.33	0.96
298.15 K, x2 = 0.8967	908.12	0.76
303.15 K, x2 = 0	1141.7	6.877
303.15 K, x2 = 0.0977	1120.44	5.251
303.15 K, x2 = 0.198	1097.28	4.028
303.15 K, x2 = 0.2987	1072.53	3.109
303.15 K, x2 = 0.4013	1046.95	2.376
303.15 K, x2 = 0.4983	1022.6	1.858
303.15 K, x2 = 0.599	996.29	1.456
303.15 K, x2 = 0.6999	965.22	1.13
303.15 K, x2 = 0.802	933.24	0.884
303.15 K, x2 = 0.8967	902.85	0.706
313.15 K, x2 = 0	1132.96	5.214
313.15 K, x2 = 0.0977	1111.6	4.059
313.15 K, x2 = 0.198	1088.31	3.174
313.15 K, x2 = 0.2987	1063.41	2.492
313.15 K, x2 = 0.4013	1037.61	1.946
313.15 K, x2 = 0.4983	1013.15	1.538
313.15 K, x2 = 0.599	986.09	1.217
313.15 K, x2 = 0.6999	955.16	0.962
313.15 K, x2 = 0.802	922.97	0.759
313.15 K, x2 = 0.8967	892.39	0.613
323.15 K, x2 = 0	1124.33	4.08
323.15 K, x2 = 0.0977	1102.85	3.23
323.15 K, x2 = 0.198	1079.44	2.568
323.15 K, x2 = 0.2987	1054.39	2.046
323.15 K, x2 = 0.4013	1028.33	1.614
323.15 K, x2 = 0.4983	1003.64	1.296
323.15 K, x2 = 0.599	975.97	1.037
323.15 K, x2 = 0.6999	945.02	0.826
323.15 K, x2 = 0.802	912.7	0.66
323.15 K, x2 = 0.8967	881.97	0.538
333.15 K, x2 = 0	1115.63	3.284
333.15 K, x2 = 0.0977	1094.03	2.636
333.15 K, x2 = 0.198	1070.44	2.124
333.15 K, x2 = 0.2987	1045.28	1.715
333.15 K, x2 = 0.4013	1018.97	1.371
333.15 K, x2 = 0.4983	993.97	1.11
333.15 K, x2 = 0.599	966	0.898
333.15 K, x2 = 0.6999	934.99	0.721
333.15 K, x2 = 0.802	902.37	0.54
333.15 K, x2 = 0.8967	871.42	0.479
343.15 K, x2 = 0	1107.96	2.707
343.15 K, x2 = 0.0977	1086.23	2.201
343.15 K, x2 = 0.198	1062.45	1.798
343.15 K, x2 = 0.2987	1037.1	1.466
343.15 K, x2 = 0.4013	1010.54	1.183
343.15 K, x2 = 0.4983	985.32	0.966
343.15 K, x2 = 0.599	956.77	0.787
343.15 K, x2 = 0.6999	925.78	0.637
343.15 K, x2 = 0.802	892.86	0.518
343.15 K, x2 = 0.8967	861.54	0.428

c1ccccc1 [benzene]
[2]
Conditions	mass density [kg/m3]	viscosity [mPa·s]
298.15 K	873.57	0.601
303.15 K	868.24	0.562
313.15 K	857.34	0.493
323.15 K	846.59	0.436
333.15 K	835.75	0.389
343.15 K	824.98	0.354

c1ccccc1 [benzene] + O=CN1CCOCC1
[1], x1 = 1
Conditions	mass density [kg/m3]	viscosity [mPa·s]
298.15 K	873.57	0.601
303.15 K	868.24	0.562
313.15 K	857.34	0.493
323.15 K	846.59	0.436
333.15 K	835.75	0.389
343.15 K	824.98	0.354

Cc1ccccc1 [toluene] + O=CN1CCOCC1
[1], x1 = 1
Conditions	mass density [kg/m3]	viscosity [mPa·s]
298.15 K	861.65	0.553
303.15 K	857.01	0.522
313.15 K	847.63	0.467
323.15 K	838.23	0.421
333.15 K	828.71	0.381
343.15 K	819.86	0.349
353.15 K	809.68	0.321

Cc1ccccc1 [toluene]
[2]
Conditions	mass density [kg/m3]	viscosity [mPa·s]
298.15 K	861.65	0.553
303.15 K	857.01	0.522
313.15 K	847.63	0.467
323.15 K	838.23	0.421
333.15 K	828.71	0.381
343.15 K	819.86	0.349
353.15 K	809.68	0.321

O=CN1CCOCC1 [N-formylmorpholine]
[2]
Conditions	mass density [kg/m3]	viscosity [mPa·s]
298.15 K	1146.06	7.955
303.15 K	1141.7	6.877
313.15 K	1132.96	5.214
323.15 K	1124.33	4.08
333.15 K	1115.63	3.284
343.15 K	1107.96	2.707
353.15 K	1098.76	2.274
